Measured values: patent US11753408B2, “Compounds and method for blocking transmission of malarial parasite” (The United States of America, as represented by the …, priority 2016, dated 2023)

Legend:
[1] = test system: Asexual parasites of P. falciparum strain 3D7; assay: In vitro drug activity on asexual parasites (SYBR Green assay); format: cell-based, Plasmodium falciparum
Summary of the method: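 3D7 parasites at 0.5% parasitemia and 2% hematocrit were exposed to drugs (DMSO ≤0.5%) for 72 h under standard culture conditions, in duplicate. After freeze-thaw lysis, SYBR Green I lysis buffer was added for 30 min at room temperature, and fluorescence was read at 490/520 nm.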

[2] = Microsomal stability (rat); format: in vitro ADME; details: rat microsomes
Solubility at pH 7.4 = format: physicochemical
mTOR = mTOR (Homo sapiens, UniProt P42345); assay: mTOR activity (no method described); format: biochemical
[3] = test system: Stage III-V gametocytes (blood stage P. falciparum parasites); assay: In vitro drug activity on gametocytes (AlamarBlue viability assay); format: cell-based, Plasmodium falciparum; details: read-out: Gametocyte EC50
Summary of the method: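 P. falciparum 3D7 stage III–V gametocytes (also HB3, Dd2), enriched by 50 mM N-acetylglucosamine and Percoll gradient, seeded at 20,000/well with compound for 72 h at 37° C, 5% CO2. AlamarBlue then added for 24 h; viability read as fluorescence (Ex 525, Em 598 nm).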

PAMPA permeability = format: in vitro ADME

SMILES	EC50 [1] [nM]	Microsomal Stability (rat) T1/2 [2] [min]	Sol @ pH 7.4 (Solubility at pH 7.4) [ug/mL]	mTOR (mTOR) [µM]	EC50 [3] [nM]	PAMPA Permeability (PAMPA permeability) [×10⁻⁶ cm/s]
Nc1cc(Cl)ccc1-c1ccc2ncc3ccc(=O)n(-c4ccc(C(=O)N5CCOCC5)cc4)c3c2c1 [Compound 136]	94.5	7.8	8.6	3.591	733	1290
O=C(c1ccc(-n2c(=O)ccc3cnc4ccc(-c5ccc(Cl)cc5)cc4c32)cc1)N1CC2CCC(C1)O2 [Compound 138]	173	4.8	<1.0	1.278	277	891
O=C(c1ccc(-n2c(=O)ccc3cnc4ccc(-c5ccc(Cl)cc5)cc4c32)cc1)N1C2CCC1CC(O)C2 (stereo not drawn) [Compound 139]	20.6	4.3	<1.0	0.4051	153	238
CN1CC2CC1CN2C(=O)c1ccc(-n2c(=O)ccc3cnc4ccc(-c5ccc(Cl)cc5)cc4c32)cc1 (stereo not drawn) [Compound 140]	59.2	9.6	>77.0	6.373	272	1390
CN1CC2CN(C(=O)c3ccc(-n4c(=O)ccc5cnc6ccc(-c7ccc(Cl)cc7)cc6c54)cc3)CC2C1 (stereo not drawn) [Compound 141]	47.5	4.2	66.5	8.043	260	1500
CN(C(=O)c1ccc(-n2c(=O)ccc3cnc4ccc(-c5ccc(Cl)cc5)cc4c32)cc1)C1CC1 [Compound 143]	63.1	1.6	<1.0	0.6716	242	1420
Cc1cc(-c2ccc3ncc4ccc(=O)n(-c5ccc(C(=O)N6CCOCC6)cc5)c4c3c2)ccc1Cl [Compound 144]	368	4.1	<1.0	2.083	1760	1470
COc1cc(-c2ccc3ncc4ccc(=O)n(-c5ccc(C(=O)N6CCOCC6)cc5)c4c3c2)ccc1Cl [Compound 145]	60.6	4.9	<1.0	1.214	266	363
CN(C)C(=O)c1cc(-c2ccc3ncc4ccc(=O)n(-c5ccc(C(=O)N6CCOCC6)cc5)c4c3c2)ccc1Cl [Compound 146]	536	9.6	63	5.732	1810	98.3
O=C(c1ccc(-n2c(=O)ccc3cnc4ccc(-c5ccc(Cl)c(C(=O)N6CCOCC6)c5)cc4c32)cc1)N1CCOCC1 [Compound 147]	4810	3.1	>90.0	21.22	18300	109
N#Cc1cc(-c2ccc3ncc4ccc(=O)n(-c5ccc(C(=O)N6CCOCC6)cc5)c4c3c2)ccc1Cl [Compound 153]	127	9.4	<1.0	18.36	52.9	57.9
O=C(NC1CCC1)c1ccc(-n2c(=O)ccc3cnc4ccc(-c5ccc(Cl)cc5)cc4c32)cc1 [Compound 154]	160	8	<1.0	0.7657	102	< 1
O=C(NC1CCCCC1)c1ccc(-n2c(=O)ccc3cnc4ccc(-c5ccc(Cl)cc5)cc4c32)cc1 [Compound 155]	1240	10.7	<1.0	27.97	3110	< 1
O=C(NC1CCCC1)c1ccc(-n2c(=O)ccc3cnc4ccc(-c5ccc(Cl)cc5)cc4c32)cc1 [Compound 156]	687	5.6	<1.0	67.63	1580	< 1
O=C(NC1CCCCCC1)c1ccc(-n2c(=O)ccc3cnc4ccc(-c5ccc(Cl)cc5)cc4c32)cc1 [Compound 157]	3350	6.8	<1.0	50	7430	< 1
O=C(NC1CC1c1ccccc1)c1ccc(-n2c(=O)ccc3cnc4ccc(-c5ccc(Cl)cc5)cc4c32)cc1 (stereo not drawn) [Compound 158]	1560	18.8	<1.0	7.899	3560	< 2.4
CN(C)Cc1ccc(-c2ccc3ncc4ccc(=O)n(-c5ccc(C(=O)N(CCO)CCO)cc5)c4c3c2)cc1 [Compound 160]	96.1	>30.0	>79.0	9.278	270	< 1
CN(C)Cc1ccc(-c2ccc3ncc4ccc(=O)n(-c5ccc(C(=O)N6CC7CN(C)CC7C6)cc5)c4c3c2)cc1 (stereo not drawn) [Compound 161]	512	>30.0	>82.0	47.05	1540	5.4
CN(C)Cc1ccc(-c2ccc3ncc4ccc(=O)n(-c5ccc(C(=O)N6CCN(CCO)CC6)cc5)c4c3c2)cc1 [Compound 162]	368	>30.0	>83.0	32.08	895	< 1
CN(C)Cc1ccc(-c2ccc3ncc4ccc(=O)n(-c5ccc(C(=O)NC6CC6)cc5)c4c3c2)cc1 [Compound 163]	93.9	>30.0	>72.0	6.497	246	232
CN(C)Cc1ccc(-c2ccc3ncc4ccc(=O)n(-c5ccc(C(=O)N6CCN(C)CC6)cc5)c4c3c2)cc1 [Compound 164]	594	>30.0	>79.0	40.42	809	238
CN(C)Cc1ccc(-c2ccc3ncc4ccc(=O)n(-c5ccc(C(=O)N6CC7CC6CN7C)cc5)c4c3c2)cc1 (stereo not drawn) [Compound 165]	934	>30.0	>80.0	50	4090	1.8
CN(C)Cc1ccc(-c2ccc3ncc4ccc(=O)n(-c5ccc(C(=O)N(C)C)cc5)c4c3c2)cc1 [Compound 166]	72.7	>30.0	>70.0	8.762	179	427
CN(C)Cc1ccc(-c2ccc3ncc4ccc(=O)n(-c5ccc(C(=O)N6CCNCC6)cc5)c4c3c2)cc1 [Compound 167]	223	>30.0	>76.0	22.69	469	1.5
N#Cc1ccc(-c2ccc3ncc4ccc(=O)n(-c5ccc(C(=O)N6CCOCC6)cc5)c4c3c2)cc1 [Compound 170]	122	13.3	2.7	3.773	168	591
O=Cc1ccc(-c2ccc3ncc4ccc(=O)n(-c5ccc(C(=O)N6CCOCC6)cc5)c4c3c2)cn1 [Compound 171]	47.5	2.8	>72.0	0.1543	240	31.3
O=C(NC1C2CNCC21)c1ccc(-n2c(=O)ccc3cnc4ccc(-c5ccc(Cl)cc5)cc4c32)cc1 (stereo not drawn) [Compound 172]	121	>30.0	2.3	0.9678	203	12.3
CNC(=O)c1ccc(-n2c(=O)ccc3cnc4ccc(-c5ccc(CN(C)C)cc5)cc4c32)cc1 [Compound 174]	133	>30.00	>68.00	7.636	265	49.9
Cc1cc(=O)n(-c2ccc(C(=O)NC3CC3)cc2)c2c1cnc1ccc(-c3ccc(Cl)cc3)cc12 [Compound 179]	451	19.4	<1	100	1700	< 1
NCc1cccc(-c2ccc3ncc4ccc(=O)n(-c5ccc(C(=O)N6CCOCC6)cc5)c4c3c2)c1 [Compound 180]	931	>30	43.7	2.454	1820	3.8
